For series [1], the system named is H4IIE hepatoma cells. The series is described as follows: RNA synthesis (3H-uridine incorporation) in insulin-stimulated quiescent H4IIE cells. It counts as cell-based. The conditions noted are these: comparison with 3-aminobenzamide; 1 μM insulin, 6 hours; FIG. 1. The procedure:
Incorporation of uridine or thymidine was used to define the change in rate of […] synthesis, respectively, in response to a mitogen such as insulin. Specifically, quiescent H4IIE cells were prepared by placing the cultures (in 24-well dishes) into serum-free a-minimal essential medium for 3 days. It is of note that the normal growth media for H4IIE cells is α-MEM containing 10% fetal bovine serum (FBS). […] Cells were subsequently lysed with detergent and the nucleic acids precipitated with 5% trichloroacetic acid. The precipitated material was collected on glass fibre filters and the radioactive content measured by scintillation counting.

The test system of series [2] is H4IIE hepatoma cells. Description: MTT staining of viable cells (cell number). It counts as cell-based. On the procedure:
In this assay, H4IIE cells are plated on 96-well dishes, and incubated in standard growth medium. Separate plates were prepared for comparing the effects of MIBG after 2 or 4 days. At those time points, 200 μl of 5 mg/ml MTT was added to each well, and the cells were incubated an additional 4 hours. The medium was removed and cells were treated with acidified isopropanol and the absorbance read at 570 nm. Increased absorbance is indicative of increases in cell number.

Series [3] has as its system H4IIE hepatoma cells. Description: flow cytometry, bromodeoxyuridine incorporation in proliferating cells. The conditions noted are these: 25 μM MIBG, 48 hours; FIG. 4. It counts as cell-based. On the procedure:
Additional verification that MIBG blocked cell proliferation was obtained using flow cytometry analysis. Proliferating H4IIE cells (<40% confluent) were incubated for 48 hours in the presence or absence (untreated control or containing MIBA) of 25 μM MIBG. The cells were pulse labeled with bromodeoxyuridine (BrdU) 2 hours before harvest to label replicating DNA. Cells were released by trypsinization, collected by centrifugation and permeabilized with Triton X-100 (1%). Replicated DNA was labeled with an anti-BrdU antibody conjugated to FITC (fluorescein isothiocyanate), while total DNA was labeled with propidium iodide. The FITC and propidium iodide labels were detected at 514 nm and 600 nm, respectively, with a Coulter flow cytometer™ (excitation wavelength 488 nm), and number of cells containing these fluors were quantified. The data were plotted as cells with propidium iodide versus cells with BrdU. […] To summarize, the results described above indicate that MIBG is a potent inhibitor of cell proliferation. Furthermore, the cellular process affected by MIBG is active throughout the cell cycle. This conclusion is based on the fact that there is no accumulation of cells at a specific phase of the cell cycle. In addition, it is of note that there is no apparent decrease in cell number or an increase in smaller cells, both characteristics of cell death.
For orientation: In flow cytometry, cells or beads pass a laser one at a time.

In series [4] the test system is porcine femoral artery. Description: balloon angioplasty of the porcine femoral artery in vivo. Conditions: 14 days. Further details: species or system pigs. The text has this: To test the effectiveness of MIBG under in vivo conditions, this compound was applied to the femoral artery after balloon angioplasty. This model provided a means of testing both MIBG and the method of application. Specifically, male castrated farm pigs (25-30 kg) were anaesthetized and maintained on isoflurane throughout the procedure. With the pig in a supine position, the left femoral artery was exposed from the bifurcation of the femoral and superficial femoral arteries to the point of insertion of the femoral artery into the groin. A mixture of nitroglycerin and papaverine was applied to the vessel and the area was covered with a saline-soaked sponge to keep the tissues moist. The right femoral artery was also exposed, treated and covered with a sponge. The left femoral was then clamped at both groin insertion (proximal) and bifurcation (distal) points, and an arteriotomy made at the bifurcation. The balloon (6.0×20 mm) was inserted through the arteriotomy in a retrograde manner (i.e. toward the groin) to a position 20 mm from the arteriotomy and the proximal clamp removed. The balloon was inflated for 1 minute, deflated and carefully removed, and the arteriotomy was closed with 6.0 ProleneTM suture. MIBG in combination with a biocompatible glue, in this example, Tisseel®, was applied to the surface of the vessel extending from the arteriotomy to the proximal region past the site of balloon inflation. The fibrin glue ensured that MIBG slowly diffused into the vessel. Furthermore, the fibrin glue helps to retain MIBG at the site for several days. The right femoral was handled as described above. […] The extent of restenosis was subsequently monitored by morphometry. […] Digital images were captured with a DAGE-MTI CCD camera and analyzed with SigmaScan Software. The neointimal and medial areas are quantified and used to calculate the neointimal index: neointimal area/medial area. […] Even though the vehicle cannot be detected after 14 days, we conclude that it remains for the minimum period necessary.

Series [5] concerns MAP kinase. Description: MAP kinase activity gel after insulin stimulation of H4IIE cells. Conditions: 50 μM MIBG; 1 μM insulin; 2-20 minutes; FIG. 27. It counts as cell-based. On the procedure: Extracts were prepared at 2, 5, 10 and 20 minutes after insulin addition. MAP kinase activity was measured using an activity gel protocol with myelin basic protein polymerized in the separating gel, as described in Yau and Zahradka, 1997, Mol Cell Biochem 172: 59-66. Scanning densitometry was used to quantify the band intensities. The location of the 42 and 44 kDa MAP kinase bands was confirmed by Western blot analysis.

Series [6] has as its system porcine coronary artery smooth muscle cells.

In the case of meta-iodobenzylguanidine [MIBG], the “inhibition of cell growth as indicated by RNA synthesis in response to insulin” value in series [1] is recorded as “more potent inhibitor of cell growth”. Also, in series [2] (20 μM, 2 or 4 days, FIG. 3), the “effect on cell number” value is on record as “effective in preventing increases in cell number”. In series [2] (200 μM, up to 96 hours), the MTT staining is 60 % of control values. Besides, in series [3], the “bromodeoxyuridine incorporation (DNA synthesis)” value is “no bromodeoxyuridine incorporation is observed”. In addition, the “restenosis after balloon angioplasty” value in series [4] (25 mM in a 1.0 ml Tisseel bolus applied to vessel surface, FIGS. 20 and 21) is given as “effectively prevents restenosis”. In addition, the “medial fibrosis or cell loss” value in series [4] (25 mM in a 1.0 ml Tisseel bolus, FIG. 20) is recorded as “no evidence of medial fibrosis”. In series [5], the “MAP kinase activation by insulin” value is recorded as “does not inhibit MAP kinase activation by insulin”. The “levels at which cytotoxic” value in series [6] is at least 200 µM. In series [6] (MIBG alone, highest concentration tested, FIG. 8), the “decrease of basal DNA synthesis” value is ≤ 40 % of the control. The “concentrations inhibiting stimulation of DNA and RNA synthesis” value in series [6] (stimulation by angiotensin II and serum, FIGS. 6 and 7) lay within 20 to 50 µM.

The values are drawn from patent US6544541B1, “Devices and compounds for treating arterial restenosis” (Cardiovascular Solutions, Inc., priority 1999, dated 2003).
